# According to patent US20180369186A1, “METHOD FOR MODULATING AUTOPHAGY AND APPLICATIONS THEREOF” (JAWAHARLAL NEHRU CENTRE FOR ADVANCED SCIENTIFIC RESEARCH, priority 2015, published 2018):
# Experiments:
# [1] = Rotarod test in MPTP mice; format: in vivo; details: 5 mg/kg
# Protocol: All the behavioural experiments are done on 3-4 month old, male C57/B16 mice. Experimenters are blind to the drug injected animals. Experimenters handle mice used for behavioral experiments for 3 consecutive days prior to the training paradigm. Behavioral experiments are designed in an order of low to high stress activity for mice. Therefore, Open Field Test is conducted in forenoon while rotarod is performed in the afternoon.
# Mice were habituated to the behaviour room for 15 minutes every day before start of experiments. The light intensity is maintained at 100 lux throughout the experiment. Mice are weighed every day before training or test to ensure their good health. Mice are randomly allocated into three treatment cohorts: placebo control, MPTP and 6-Bio. Data is plotted using GraphPad prism 5 software.
# The rotarod instrument is custom made at the Mechanical workshop, National Centre of Biological Sciences, Bengaluru, India. The rotating rod (diameter 3.3 cm) is made of Delrin and is textured to enhance the grip of mice. The rod is fixed at a height of 30 cm from the cushioned platform where mice fell on to during training and test. The rod is partitioned into three areas of 9.3 cm distance between each partition using discs (40 cm diameter) made of Teflon. […] The entire trial is video recorded using a DSLR camera (Nikon D5100) and latencies are scored manually. […]
# aminopeptidase = assay: Protease protection assay with aminopeptidase; format: cell-based, S. cerevisiae; details: starvation
# Protocol: To elucidate the step of action of Bay11, a protease protection assay is performed using aminopeptidase as a marker, which is also a substrate for starvation-induced autophagy. Untreated cells in presence of proteinase K show both the precursor as well as the matured form due to the autophagosome-sequestered membrane-protected cargo and the cytosolic free form, respectively (FIGS. 22D and 22E). […] Combined treatment with Proteinase K and triton X-100 results in conversion of all the precursor form to the matured form in both treated and untreated groups.
# Atg8 and Atg5 = assay: Co-localization of GFP-Atg8 and Atg5-RedStar in yeast; format: cell-based, S. cerevisiae
# p62/SQSTM1 = assay: p62 aggregate immunofluorescence in MEFs; format: cell-based, mouse; details: 5 μM, 24 h and 48 h
# Protocol: Immunofluorescence analysis in MEFs is carried out by fixing the cells with 4% methanol free paraformaldehyde for 15 minutes, permeabilised with 0.5% TritonX-100 in PBS for 10 minutes, and then blocking with 5% FES in PBS for 30 minutes at room temperature, along with PBS washes in between every steps. Anti-p62 antibody (Progen Biotechnik, GP62-C) is used at 1:250 dilution in […] in PBS and incubated overnight at 4° C. Cells are then washed and incubated with goat anti-guinea pig Alexa 594 (ThermoFisher Scientific, A-15 11076) secondary antibody at 1:1000 dilution for 1 hour at room temperature. Cells are washed, counterstained with DAPI (ThermoFisher Scientific, D1306) in PBS for 5 minutes, washed again and then mounted using Prolong diamond anti-fade reagent (ThermoFisher Scientific, P36970). Slides are imaged using a Zeiss LSM 510 Meta Confocal Microscope using 100× objective. Analysis is performed by assessing for the percentage of cells displaying an accumulation of endogenous p62-positive aggregates.
# Analysis of p62 aggregates is done as described previously. […] The percentage of cells with increased p62+ aggregates is quantified by assessing 200 cells per condition from independent experiments, in which a cell with an accumulation of p62+ aggregates was given a score of 1 whereas a cell having basal (low) levels of p62+ aggregates was given a score of 0.
# p62, MAP1LC3B-II = assay: p62 and MAP1LC3B immunoblotting in Atg5+/+ and Atg5−/− MEFs; format: cell-based, mouse; details: 5 μM, 24 h
# Protocol: Western blotting is performed using standard methods. Immunoblotting in MEFs is carried out as described previously. Dilutions of primary antibodies used are as follows: Anti-p62 1:1000 (Progen Biotechnik, GP62-C), Anti-MAP1LC3B 1:3000 (Nevus Biologicals, NB100-2220) and Anti-GAPDH (Cell Signalling Technologies, 2118S). Secondary antibodies conjugated to HRP are used at 1:10000 dilution as follows: Anti-Guinea-Pig-HRP (Abeam, ab50210) and Anti-Rabbit-HRP (Calbiochem, 401393).
# LC3-II = assay: LC3 processing assay in SH-SY5Y cells; format: cell-based, human; details: 5 μM, 2 h; untreated vs treated
# Protocol: The autophagy assays are performed by seeding equal numbers of sub-confluent 1-HeLa or SH-SY5Y cells in 6-well dishes and allowed to attach for 24 h, then treated with XCT 790 (5 μM) and/or 3-MA (5 mM) and/or lithium chloride (10 mM) in fed condition for 2 h. After treatments, the cell lysates are analyzed by immunoblotting.
# Mammalian cell lysates preparation: After treatments, cells are collected in Laemmli buffer to perform LC3 processing assay, P70S6K, AMPK, ULK1 and 4E-BP1 immunoblotting. Samples are electrophoresed onto SDS-PAGE (8-15%) and then transferred onto PVDF (Bio-Rad) membrane through Transblot turbo (Bio-Rad). Blots are stained with Ponceau S, then probed with appropriate primary antibodies at 4° C. for overnight and subsequently HRP-conjugated secondary antibody. Signals are attained using enhanced chemiluminescence substrate (Clarity, Bio-Rad) and imaged using a gel documentation system (G Box, Syngene) and then bands are quantitated using Image software (NIH).
compound,measurement,setting,value
"O=C1Nc2cc(Br)ccc2/C1=C1/Nc2ccccc2/C1=N\O [6-Bio, (2′Z,3′E)-6-Bromoindirubin-3′-oxime]","latency to fall, Co versus MPTP","[1]; MPTP+Co, day 13",increased
same,"latency to fall, Post versus MPTP",[1]; administered after 48 h MPTP,not protected
"Cc1ccc(S(=O)(=O)/C=C/C#N)cc1 [Bay11, 3-[(4-methylphenyl)sulfonyl]-(2E)-propenenitrile]",form of aminopeptidase upon proteinase K treatment,aminopeptidase,only the mature form of aminopeptidase
same,Atg5 punctate structures,Atg8 and Atg5; vs single puncta in untreated cells,multiple puncta
same,co-localization between Atg8 and Atg5 dots,Atg8 and Atg5; vs untreated cells,significantly more co-localization
same,endogenous p62 aggregates,p62/SQSTM1,significant accumulation of endogenous p62 aggregates
same,MAP1LC3B-II levels in Atg5+/+ MEFs,"p62, MAP1LC3B-II",reduces MAP1LC3B-II levels
same,endogenous p62 levels in Atg5+/+ MEFs,"p62, MAP1LC3B-II",significantly increases endogenous p62 levels
same,endogenous p62 levels in Atg5−/− MEFs,"p62, MAP1LC3B-II",no significant effect
"COc1cc(C=C(C#N)C(=O)Nc2nnc(C(F)(F)F)s2)ccc1OCc1ccc(C(F)(F)F)cc1C(F)(F)F [XCT 790, 3-[4-(2,4-Bis-trifluoromethylbenzyloxy)-3-methoxyphenyl]-2-cyano-N-(5-trifluoromethyl-1,3,4-thiadiazol-2-yl)acrylamide]",accumulation of LC3-II levels,LC3-II,~2.5 fold
